Assay results taken from patent US11254671B2, “Chemical compounds” (GLAXOSMITHKLINE INTELLECTUAL PROPERTY DEVELOPMENT LIMITED, priority 2017, dated 2022).

These molecules were tested on phosphorylated Akt at serine 473 (pAKTs473) in primary human lung fibroblasts (assay: Highthroughput phosphorylated Akt (Ser473) in vitro immunoassay (MSD)). Settings: Fibroblast, 1 h compound, PDGF-BB 10 ng/ml for 10 min, mean of multiple experiments, read-out: mean pIC50, inhibition of pAkt (Ser473) (converted).
Type: cell-based
Summary of the method: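 Primary human lung fibroblasts in 0.4% FBS were preincubated with compound for 1 h at 37 °C (11-point curve, 0.1% DMSO final), then stimulated with 10 ng/ml PDGF-BB for 10 min. pAkt Ser473 in lysates was measured by MSD electrochemiluminescence; IC50 was derived by non-linear regression between stimulated and unstimulated controls.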

Compound	IC50 [nM]
CCS(=O)(=O)C(C)(C)c1cc(-c2ccc3[nH]c(CNC)cc3n2)nc(N2CCOC[C@@H]2C)c1 [Example 7, (S)-1-(5-(4-(2-(ethylsulfonyl)propan-2-yl)-6-(3-methylmorpholino)pyridin-2-yl)-1H-pyrrolo[3,2-b]pyridin-2-yl)-N-methylmethanamine]	3.16 to 316
CC[C@H]1COCCN1c1cc(C2(S(=O)(=O)N(C)C)CCOCC2)cc(-c2ccc3[nH]c(CNC)cc3n2)n1 [Example 31, 4-{2-[(3S)-3-ethylmorpholin-4-yl]-6-{2-[(methylamino)methyl]-1H-pyrrolo[3,2-b]pyridin-5-yl}pyridin-4-yl}-N,N-dimethyloxane-4-sulfonamide]	2.51 to 10
CC[C@H]1COCCN1c1cc(CS(=O)(=O)C2CC2)cc(-c2ccc3[nH]c(CNC)cc3n2)n1 [Example 10, (S)-1-(5-(4-((cyclopropylsulfonyl)methyl)-6-(3-ethylmorpholino)pyridin-2-yl)-1H-pyrrolo[3,2-b]pyridin-2-yl)-N-methylmethanamine]	2.51 to 10
CC[C@H]1COCCN1c1cc(C(C)(C)S(=O)(=O)C2CC2)cc(-c2ccc3[nH]c(CNC)cc3n2)n1 [Example 9, (S)-1-(5-(4-(2-(cyclopropylsulfonyl)propan-2-yl)-6-(3-ethylmorpholino)pyridin-2-yl)-1H-pyrrolo[3,2-b]pyridin-2-yl)-N-methylmethanamine]	3.16 to 316
CNCc1cc2nc(-c3cc(C(C)(C)S(C)(=O)=O)cc(N4CCOC[C@@H]4C)n3)ccc2[nH]1 [Example 2, (S)—N-methyl-1-(5-(6-(3-methylmorpholino)-4-(2-(methylsulfonyl)propan-2-yl)pyridin-2-yl)-1H-pyrrolo[3,2-b]pyridin-2-yl)methanamine]	3.16 to 316
CC[C@H]1COCCN1c1cc(CS(=O)(=O)N(C)C)cc(-c2ccc3[nH]c(CNC)cc3n2)n1 [Example 17, (S)-1-(2-(3-ethylmorpholino)-6-(2-((methylamino)methyl)-1H-pyrrolo[3,2-b]pyridin-5-yl)pyridin-4-yl)-N,N-dimethylmethanesulfonamide]	2.51 to 10
CC[C@H]1COCCN1c1cc(C(C)(C)S(C)(=O)=O)cc(-c2ccc3[nH]c(CN)cc3n2)n1 [Example 21, 1-(5-{6-[(3S)-3-ethylmorpholin-4-yl]-4-(2-methanesulfonylpropan-2-yl)pyridin-2-yl}-1H-pyrrolo[3,2-b]pyridin-2-yl)methanamine]	3.16 to 316
CNCc1cc2nc(-c3cc(C(C)(C)S(C)(=O)=O)cc(N4C5CCCC4COC5)n3)ccc2[nH]1 [Example 5, 1-(5-(6-(3-oxa-9-azabicyclo[3.3.1]nonan-9-yl)-4-(2-(methylsulfonyl)propan-2-yl)pyridin-2-yl)-1H-pyrrolo[3,2-b]pyridin-2-yl)-N-methylmethanamine]	3.16 to 316
CC[C@H]1COCCN1c1cc(CS(=O)(=O)NC)cc(-c2ccc3[nH]c(CNC)cc3n2)n1 [Example 30, 1-{2-[(3S)-3-ethylmorpholin-4-yl]-6-{2-[(methylamino)methyl]-1H-pyrrolo[3,2-b]pyridin-5-yl}pyridin-4-yl}-N-methylmethanesulfonamide]	3.16 to 316
CNCc1cc2nc(-c3cc(CS(C)(=O)=O)cc(N4CC5CCC(C4)O5)n3)ccc2[nH]1 [Example 25, ({5-[4-(methanesulfonylmethyl)-6-{8-oxa-3-azabicyclo[3.2.1]octan-3-yl}pyridin-2-yl]-1H-pyrrolo[3,2-b]pyridin-2-yl}methyl)(methyl)amine]	3.16 to 316
CC[C@H]1COCCN1c1cc(C(C)(C)S(C)(=O)=O)cc(-c2ccc3[nH]c(CO)cc3n2)n1 [Example 32]	3.16 to 316
CNCc1cc2nc(-c3cc(C4(S(C)(=O)=O)CCOCC4)cc(N4C5CCC4COC5)n3)ccc2[nH]1 [Example 40, ({5-[4-(4-methanesulfonyloxan-4-yl)-6-{3-oxa-8-azabicyclo[3.2.1]octan-8-yl}pyridin-2-yl]-1H-pyrrolo[3,2-b]pyridin-2-yl}methyl)(methyl)amine]	3.16 to 316
CC[C@H]1COCCN1c1cc(CS(C)(=O)=O)cc(-c2ccc3[nH]c(CNC)cc3n2)n1 [Example 13, (S)-1-(5-(6-(3-ethylmorpholino)-4-((methylsulfonyl)methyl)pyridin-2-yl)-1H-pyrrolo[3,2-b]pyridin-2-yl)-N-methylmethanamine]	3.16 to 316
